Laboratory results reported in patent US20060128737A1, “Androgen receptor agonists” (KAKEN PHARMACEUTICAL CO., LTD., priority 2003, published 2006).

How the values were obtained:
Type in all cases: in vivo, rat
[1] = test system: orchiectomized (ORX) rats; test: Test Example 3: effect on prostate, levator ani muscle and femoral bone mineral density in ORX rats (subcutaneous); conditions: for Femoral bone mineral density / Weight of levator ani muscle / Weight of prostate: 5 days a week, 4 weeks
Experimental: (§1) Testes were removed from 12-week-old male SD rats. Starting on the next day, the compound of Example 12 or 65 (30 mg/kg) or DHT (0.1, 1, 10 mg/kg) was subcutaneously administered once daily for four consecutive weeks on a 5-day-a-week basis. The Example compounds and DHT were dissolved in dimethyl sulfoxide and diluted 10-fold with olive oil to prepare solutions with various concentrations for use in the test. In an ORX control group, dimethyl sulfoxide as diluted 10-fold with olive oil was used for the test. Rats which had been falsely operated on without orchiectomy were used as a sham control group. On the next day after final administration, the wet weights of the ventral prostate and levator ani muscle were measured and the right femoral bone mineral density was measured by DEXA (double energy X-ray absorption) to evaluate the in vivo efficacy of the compounds of Example 12 and 65.

[2] = test system: orchiectomized (ORX) rats; test: Test Example 6: effect of oral administration on prostate, levator ani muscle and femoral bone mineral density in ORX rats; conditions: for Femoral bone mineral density / Weight of levator ani muscle / Weight of prostate: 7 days a week
Experimental: (§2) Testes were removed from 12-week-old male SD rats. Starting on the next day, the compound of Example 108 (30 mg/5 ml/kg) was orally administered once daily for four consecutive weeks on a 7-day-a-week basis. As a positive control, methyl testosterone (MT) (100 mg/5 ml/kg) was orally administered once daily on a continuous 7-day-a-week basis. The test compound was suspended in a 0.5% methyl cellulose solution used as a solvent and the suspension was used in the test. In an ORX control group, a 0.5% methyl cellulose solution (5 ml/kg) was administered. Rats which had been falsely operated on without orchiectomy were used as a sham control group. On the next day after final administration, the wet weights of the ventral prostate and levator ani muscle were measured and the right femoral bone mineral density was measured by DEXA (double energy X-ray absorption) to evaluate the in vivo efficacy of the compound of Example 108. The results are shown in Table 20 and in FIGS. 13 to 15.

[3] = test system: orchiectomized (ORX) rats; test: Test Example 7: effect of oral administration on prostate, levator ani muscle and femoral bone mineral density in ORX rats; conditions: for Femoral bone mineral density / Weight of levator ani muscle / Weight of prostate: 7 days a week
Experimental: as §2, with “129” for “108”, “129.” for “108.”, “21” for “20”, “16” for “13”, “18.” for “15.”

[4] = test system: orchiectomized (ORX) rats; test: Test Example 4: effect on prostate, levator ani muscle and femoral bone mineral density in ORX rats (subcutaneous)
Experimental: as §1, with “Example 113” for “Example 12”, “or 114” for “or 65”, “DHT (10” for “DHT (0.1, 1, 10”, “test. […]” for “test. Rats which had been falsely operated on without orchiectomy were used as a sham control group.”, “and 114.” for “and 65.”

[5] = test system: orchiectomized (ORX) rats; test: Test Example 2: effect on prostate, levator ani muscle and femoral bone mineral density in ORX rats (subcutaneous); conditions: for Femoral bone mineral density / Weight of levator ani muscle / Weight of prostate: 5 days a week, 4 weeks
Experimental: as §1, with “1 (3, 10, 30” for “12 or 65 (30”, “compound” for “compounds”, “1.” for “12 and 65.”

[6] = test system: orchiectomized (ORX) rats; test: Test Example 5: effect of oral administration on prostate, levator ani muscle and femoral bone mineral density in ORX rats
Experimental: Testes were removed from 12-week-old male SD rats. Starting on the next day, the compound of Example 1 (100 mg/10 ml/kg) was orally administered once daily for four consecutive weeks on a 5-day-a-week basis. As a positive control, testosterone propionate (TP) (10 mg/kg) was subcutaneously administered once daily on a continuous 5-day-a-week basis. The test compound was suspended in a 0.5% methyl cellulose solution used as a solvent whereas TP was dissolved in dimethyl sulfoxide and diluted 10-fold with olive oil for use in the test. In an ORX control group, dimethyl sulfoxide as diluted 10-fold with olive oil was used for the test. Rats which had been falsely operated on without orchiectomy were used as a sham control group. On the next day after final administration, the wet weights of the ventral prostate and levator ani muscle were measured and the right femoral bone mineral density was measured by DEXA (double energy X-ray absorption) to evaluate the in vivo efficacy of the compound of Example 1. The results are shown in Table 19 and in FIGS. 10 to 12.

[7] = 30 mg/kg orally once daily, 4 weeks
[8] = 10 mg/kg sc once daily, 5 days a week, 4 weeks
[9] = 10 mg/kg sc once daily, 5 days a week

SMILES: CC(C)(CNC(=O)c1ccc(OC(F)(F)F)cc1)[C@H]1Nc2ccc([N+](=O)[O-])cc2[C@H]2OCC[C@H]21 (relative stereo) [Example 65, (3aS*,4S*,9bS*)-N-[2-methyl-2-(8-nitro-2,3,3a,4,5,9b-hexahydro-furo[3,2-c]quinolin-4-yl)propyl]-4-trifluoromethoxybenzamide]
- Prostate weight as % of the level of the sham control group ([1]; 30 mg/kg sc): about 70%
- Femoral bone mineral density ([1]; 30 mg/kg sc once daily): 120 ± 5 mg/cm^2
- Weight of levator ani muscle ([1]; 30 mg/kg sc once daily): 67 ± 6 mg/100 g body weight
- Weight of prostate ([1]; 30 mg/kg sc once daily): 69 ± 10 mg/100 g body weight

SMILES: CC(=O)Nc1ccc(C(=O)NCC(C)(C)[C@H]2Nc3ccc(C#N)cc3[C@H]3C=CC[C@H]32)cn1 (relative stereo) [Example 108, (3aR*,4S*,9bS*)-6-acetylamino-N-[2-(8-cyano-3a,4,5,9b-tetrahydro-3H-cyclopenta[c]quinolin-4-yl)-2-methyl-propyl]nicotinamide]
- Prostate weight as % of the level of the sham control group ([2]; 30 mg/kg orally): about 70%
- Femoral bone mineral density [2, 7]: 141 ± 6 mg/cm^2
- Weight of levator ani muscle [2, 7]: 61 ± 6 mg/100 g body weight
- Weight of prostate [2, 7]: 67 ± 13 mg/100 g body weight

SMILES: CC(=O)Nc1ccc(C(=O)NCC(C)[C@H]2Nc3ccc(C#N)cc3[C@H]3OCC[C@H]32)cc1 (relative stereo) [Example 129, (3aS*,4R*,9bS*)-4-acetylamino-N-[2-(8-cyano-2,3,3a,4,5,9b-hexahydro-furo[3,2-c]quinolin-4-yl)propyl]benzamide]
- Prostate weight as % of the level of the sham control group ([3]; 30 mg/kg orally): about 85%
- Femoral bone mineral density [3, 7]: 145 ± 5 mg/cm^2
- Weight of levator ani muscle [3, 7]: 66 ± 6 mg/100 g body weight
- Weight of prostate [3, 7]: 109 ± 66 mg/100 g body weight

SMILES: C[C@]12CCC(=O)C[C@@H]1CC[C@@H]1[C@@H]2CC[C@]2(C)[C@@H](O)CC[C@@H]12 [DHT, Dihydrotestosterone, reference compound]
- Prostate weight as % of the level of the sham control group ([4]; 10 mg/kg sc): about 140%
- Femoral bone mineral density [4, 8]: 148 ± 5 mg/cm^2
- Weight of levator ani muscle [4, 8]: 89 ± 7 mg/100 g body weight
- Weight of prostate [4, 8]: 199 ± 27 mg/100 g body weight
- Femoral bone mineral density ([1]; 0.1 mg/kg sc once daily): 114 ± 6 mg/cm^2
- Weight of levator ani muscle ([1]; 0.1 mg/kg sc once daily): 37 ± 6 mg/100 g body weight
- Weight of prostate ([1]; 0.1 mg/kg sc once daily): 34 ± 11 mg/100 g body weight
- Femoral bone mineral density ([1]; 1 mg/kg sc once daily): 115 ± 4 mg/cm^2
- Weight of levator ani muscle ([1]; 1 mg/kg sc once daily): 47 ± 3 mg/100 g body weight
- Weight of prostate ([1]; 1 mg/kg sc once daily): 81 ± 15 mg/100 g body weight
- Prostate weight as % of the level of the sham control group ([1]; 10 mg/kg sc): about 145%
- Femoral bone mineral density ([1]; 10 mg/kg sc once daily): 122 ± 3 mg/cm^2
- Weight of levator ani muscle ([1]; 10 mg/kg sc once daily): 80 ± 5 mg/100 g body weight
- Weight of prostate ([1]; 10 mg/kg sc once daily): 146 ± 16 mg/100 g body weight
- Femoral bone mineral density ([5]; 0.1 mg/kg sc once daily): 114 ± 6 mg/cm^2
- Weight of levator ani muscle ([5]; 0.1 mg/kg sc once daily): 39 ± 9 mg/100 g body weight
- Weight of prostate ([5]; 0.1 mg/kg sc once daily): 38 ± 7 mg/100 g body weight
- Femoral bone mineral density ([5]; 1 mg/kg sc once daily): 115 ± 4 mg/cm^2
- Weight of levator ani muscle ([5]; 1 mg/kg sc once daily): 58 ± 5 mg/100 g body weight
- Weight of prostate ([5]; 1 mg/kg sc once daily): 100 ± 9 mg/100 g body weight
- Prostate weight as % of the level of the sham control group ([5]; 10 mg/kg sc): about 160%
- Femoral bone mineral density ([5]; 10 mg/kg sc once daily): 122 ± 3 mg/cm^2
- Weight of levator ani muscle ([5]; 10 mg/kg sc once daily): 78 ± 6 mg/100 g body weight
- Weight of prostate ([5]; 10 mg/kg sc once daily): 166 ± 26 mg/100 g body weight

SMILES: C[C@]12CCC(=O)C=C1CC[C@@H]1[C@@H]2CC[C@@]2(C)[C@H]1CC[C@]2(C)O [MT, methyl testosterone, reference compound]
- Prostate weight as % of the level of the sham control group ([3]; 100 mg/kg orally): about 115%
- Femoral bone mineral density ([3]; 100 mg/kg orally once daily): 149 ± 6 mg/cm^2
- Weight of levator ani muscle ([3]; 100 mg/kg orally once daily): 63 ± 5 mg/100 g body weight
- Weight of prostate ([3]; 100 mg/kg orally once daily): 143 ± 63 mg/100 g body weight
- Prostate weight as % of the level of the sham control group ([2]; 100 mg/kg orally): about 120%
- Femoral bone mineral density ([2]; 100 mg/kg orally once daily): 146 ± 5 mg/cm^2
- Weight of levator ani muscle ([2]; 100 mg/kg orally once daily): 65 ± 8 mg/100 g body weight
- Weight of prostate ([2]; 100 mg/kg orally once daily): 117 ± 18 mg/100 g body weight

SMILES: CCC(=O)O[C@H]1CC[C@H]2[C@@H]3CCC4=CC(=O)CC[C@]4(C)[C@H]3CC[C@]12C [TP, testosterone propionate, reference compound]
- Prostate weight as % of the level of the sham control group ([6]; 10 mg/kg sc): about 125%
- Femoral bone mineral density [6, 9]: 135 ± 8 mg/cm^2
- Weight of levator ani muscle [6, 9]: 88 ± 9 mg/100 g body weight
- Weight of prostate [6, 9]: 204 ± 29 mg/100 g body weight
